One experiment deals with T1, PhGal4E_1 (Pyrococcus horikoshii, UniProt O73960).
T1 sequence (O73960 1-318): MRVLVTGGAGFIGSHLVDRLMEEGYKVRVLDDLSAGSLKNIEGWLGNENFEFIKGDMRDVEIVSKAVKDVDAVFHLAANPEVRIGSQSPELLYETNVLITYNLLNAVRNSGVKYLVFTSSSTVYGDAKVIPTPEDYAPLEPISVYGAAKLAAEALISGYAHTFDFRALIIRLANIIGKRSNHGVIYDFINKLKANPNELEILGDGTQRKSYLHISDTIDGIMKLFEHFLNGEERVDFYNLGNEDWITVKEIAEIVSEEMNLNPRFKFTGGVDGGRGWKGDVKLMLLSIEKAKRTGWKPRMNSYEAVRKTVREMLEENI
The experiment is described as follows: X-ray crystal structure, […] Å, crystal soaking. Conditions: soaked 1-3 min with 10 mM GDP-L-Fuc; active site, NAD+ bound. It is filed as binding.

Experiment [1] deals with PhGal4E_1 variant Y145F (Pyrococcus horikoshii). The experiment is described as follows: crystal structure.

For the compound `C[C@@H]1O[C@H](OP(=O)(O)OP(=O)(O)OC[C@H]2O[C@@H](n3cnc4c(=O)[nH]c(N)nc43)[C@H](O)[C@@H]2O)[C@@H](O)[C@H](O)[C@@H]1O` [GDP-L-Fuc], the “X-ray crystal structure, 2.4 Å, crystal soaking” value on PhGal4E_1 was “NAD^+ cofactor and GDP-L-Fuc bound in the active site of the WT (PDB ID: 8RDH”.
The stoichiometry N is the number of molecules, sites or subunits per partner or assembly. For the compound PhGal4E_1 variant Y145F (enzyme), the stoichiometry N in experiment [1] turned out to be 2.

The record behind these values is publication PMC12171764 (Computational and Structural Biotechnology Journal, 2025).
